Source: US20240351999A1, “PYRROLYLACYLPIPERIDYLAMINE COMPOUND AND USE THEREOF” (INSTITUTE OF MATERIA MEDICA ,CHINESE ACADEMY OF MEDICAL …, priority 2021, published 2024)
Converted amounts (≈) assume the structure as drawn. Like-named read-outs stand apart in the source and are kept apart here.

Tests used:
[1] = system: Staphylococcus epidermidis ATCC 12228; assay: In vitro antibacterial activity (MIC), microbroth dilution; format: cell-based; details: ATCC12228, 37° C., 18 h
[2] = system: Staphylococcus aureus ATCC 29213; assay: as above; format: cell-based; details: ATCC29213, 37° C., 18 h
[3] = system: Staphylococcus aureus ATCC 29213; assay: In vitro induced drug resistance, 20 generations at sub-MIC; format: cell-based; details: ATCC29213, read-out: MIC value after passage for 20 generations
Description: Test method: MIC values of a compound 1 and a control compound DS2969 against Staphylococcus aureus ATCC 29213 were determined by using a microbroth dilution method recommended by operating procedures for antibacterial susceptibility testing of the Clinical and Laboratory Standards Institute (CLSI).
After testing the MIC values, sub-MIC concentrations (1/2 MIC) of bacteria were diluted, and the concentration of the obtained bacterial solution was adjusted to 105 CFU/mL for a next round of MIC value testing. After 24 hours of incubation, bacterial suspensions were prepared by using bacterial suspensions at sub-MIC concentrations of drugs (1/2 MIC), and another MIC testing was performed. This process was repeated for 20 times, and the MIC value for each test was recorded.
The MIC values of the compound 1 and DS2969 inducing Staphylococcus aureus ATCC29213 for 20 generations were recorded, with the number of generations of bacteria induced as an abscissa and the MIC values as an ordinate (as shown in FIG. 1).

[4] = system: Mycobacterium tuberculosis; assay: Activity against Mycobacterium tuberculosis (MIC); format: cell-based; details: read-out: Inhibitory activity (MIC) against Mycobacterium tuberculosis
[5] = system: Pseudomonas aeruginosa ATCC 27853; assay: In vitro antibacterial activity (MIC), microbroth dilution; format: cell-based; details: read-out: MIC Pseudomonas aeruginosa ATCC 27853
[6] = system: Escherichia coli ECO+ 15-1; assay: as above; format: cell-based; details: 18 h, read-out: MIC Escherichia coli ECO+ 15-1
[7] = system: Staphylococcus aureus ATCC 43300 (MRSA); assay: as above; format: cell-based; details: 18 h, read-out: MIC Staphylococcus aureus ATCC 43300 (MRSA)
[8] = system: Staphylococcus epidermidis MRSE 15-1; assay: as above; format: cell-based; details: 37° C., 18 h
[9] = system: Enterococcus faecalis ATCC 51575; assay: as above; format: cell-based; details: ATCC51575, 37° C., 18 h
[10] = system: Acinetobacter baumannii ATCC 19606; assay: as above; format: cell-based; details: read-out: MIC Acinetobacter baumannii ATCC 19606
[11] = system: Clostridium difficile ATCC 9689; assay: as above; format: cell-based
[12] = Acute toxicity test in mice; format: in vivo
Excerpt: (§1) Experimental animals: Beijing Vital River Laboratory Animal Technology Co., Ltd., ICR mice, with a uniform body weight of 20-22 g, and half male and half female.
In a tail vein administration group, there were 10 mice in each group, with half male and half female. In an intragastric administration group and an intraperitoneal administration group, there were four mice in each group, with half male and half female.

[13] = system: Staphylococcus aureus ATCC 25923; assay: In vitro antibacterial activity (MIC), microbroth dilution; format: cell-based; details: ATCC25923, 37° C., 18 h
[14] = system: Klebsiella pneumoniae KPN-15-1; assay: as above; format: cell-based; details: read-out: MIC Klebsiella pneumoniae KPN-15-1
[15] = Pharmacokinetic test in mice; format: in vivo; details: both sexes, ICR, mouse, po, 150 mg/kg intragastric administration; for half-life: read-out: t½z (half-life period) (converted)
Description: as §1
Experimental scheme: a compound 1 was administered at a dose of 150 mg/kg (Solvents were as follows: saline:Tween 80:DMSO=9:0.5:0.5) by intragastric administration, and samples were taken by orbital blood sampling or a mode of sampling blood by enucleating eyeballs at 10 min, 20 min, 30 min, 1 h, 3 h, 5 h, 8 h, 24 h, 36 h, and 48 h after administration, plasma concentrations were determined by UPLC, a drug concentration-time curve was plotted, and key pharmacokinetic parameters were calculated.

[16] = system: Enterococcus faecium EFM 19-1; assay: In vitro antibacterial activity (MIC), microbroth dilution; format: cell-based; details: EFM191, 37° C., 18 h
[17] = system: Escherichia coli ATCC 25922; assay: as above; format: cell-based; details: read-out: MIC Escherichia coli ATCC 25922
[18] = system: Escherichia coli ATCC 35218; assay: as above; format: cell-based; details: read-out: MIC Escherichia coli ATCC 35218
[19] = system: Staphylococcus aureus (MRSA, ATCC 43300); assay: Antibacterial activity in mice, sepsis model; format: in vivo, ICR mice; details: MRSA ATCC 43300 sepsis model
Description: as §1
Model: Sepsis model infected by Staphylococcus aureus (MRSA, ATCC 43300)
Modeling method: mice were infected with […] (diluted with a 5% sterile yeast solution) Staphylococcus aureus (MRSA, ATCC 43300) such that sepsis models of mice were formed (0.5 mL of a bacterial solution was injected intraperitoneally into each mouse).
Experimental scheme: a compound 1 and a positive drug were first dissolved in DMSO, and then diluted with other solvents, wherein a solvent ratio was saline:Tween 80:DMSO=9:0.5:0.5.

[20] = system: Staphylococcus aureus MRSA 15-1; assay: In vitro antibacterial activity (MIC), microbroth dilution; format: cell-based; details: 37° C., 18 h
[21] = system: Escherichia coli ATCC25922; details: prior art value; cited from earlier work
[22] = Clostridioides difficile, ATCC9689; read-out: MIC Clostridium difficile ATCC 9689

Row | Structure (SMILES) | MIC [1] [µg/mL] | MIC [2] [µg/mL] | MIC ([5]; ATCC27853, 37° C., 18 h) [µg/mL] | MIC ([6]; 37° C.) [µg/mL] | MIC [8] [µg/mL] | MIC [9] [µg/mL] | MIC ([10]; ATCC19606, 37° C., 18 h) [µg/mL] | MIC [13] [µg/mL] | MIC ([14]; KPN151, 37° C., 18 h) [µg/mL] | MIC [16] [µg/mL] | MIC ([17]; ATCC25922, 37° C., 18 h) [µg/mL] | MIC ([18]; ATCC35218, 37° C., 18 h) [µg/mL] | MIC [20] [µg/mL] | further results
1 | CO[C@H]1CN(c2cnc(C(C)(C)O)cn2)CC[C@H]1NC(=O)c1[nH]c(C)c(Cl)c1Cl [Compound 4, 3,4-Dichloro-N-((3S,4R)-1-(5-(2-hydroxypropan-2-yl)pyrazin-2-yl)-3-methoxypiperidin-4-yl)-5-methyl-1H-pyrrole-2-carboxamide] | 0.5 (≈ 1.13 µM) | 0.25 (≈ 0.565 µM) | – | – | – | – | – | – | – | – | – | – | – | –
2 | CO[C@H]1CN(c2ccc(C(C)(C)O)nn2)CC[C@H]1NC(=O)c1[nH]c(C)c(Cl)c1Cl [Compound 1, 3,4-dichloro-N-{(3S,4R)-1-[6-(2-hydroxypropan-2-yl)pyridazin-3-yl]-3-methoxypiperidin-4-yl}-5-methyl-IH-pyrrole-2-carboxamide] | ≤ 0.03 | 0.008 (≈ 0.0181 µM) | 4 (≈ 9.04 µM) | 8 (≈ 18.1 µM) | ≤ 0.03 | ≤ 0.03 | 8 (≈ 18.1 µM) | ≤ 0.03 | 8 (≈ 18.1 µM) | ≤ 0.03 | 1 (≈ 2.26 µM) | 1 (≈ 2.26 µM) | ≤ 0.03 | MIC [3]: < 1 µg/mL; MIC [4]: 0.593 µg/mL (≈ 1.34 µM); MIC [7]: ≤ 0.03 µg/mL; MIC [11, 22]: 0.25 µg/mL (≈ 0.565 µM); Activity against Clostridium difficile compared with controls ([11]; vs DS2969 and vancomycin): stronger than those of DS2969 and the positive control drug vancomycin; Survival rate on day 14 ([12]; 95 mg/kg by a tail vein): 60%; Survival rate on day 14 ([12]; 200 mg/kg intraperitoneally): 100%; Survival rate on day 14 ([12]; 800 mg/kg by intragastric administration): 75%; bioavailability ([15]; in vivo, read-out: F (bioavailability)): 86%; half-life ([15]; in vivo): 9.2 h; AUC(0-inf) ([15]; plasma): 933 µg·h/mL; Cmax ([15]; plasma): 49400 ng/mL; Tmax ([15]; plasma): 1 h; AUC(0-t) ([15]; plasma, read-out: AUC (0-48)): 916 µg·h/mL; MRT last ([15]; plasma, read-out: MRT (0-48)): 16.1 h; MRT inf ([15]; plasma, read-out: MRT (0-∞)): 16.9 h; half-life ([15]; plasma): 9.21 h; In vivo antibacterial activity (survival of mice) ([19]; 50 mg/kg, 1 h after modeling, observed 14 days): significant in vivo antibacterial activity and shows better antibacterial activity than DS2969; ED50 ([19]; Staphylococcus aureus, po, intragastric administration at lower dose): 5 mg/kg
3 | CO[C@H]1CN(c2ccc(C3(O)CCCC3)nn2)CC[C@H]1NC(=O)c1[nH]c(C)c(Cl)c1Cl [Compound 7, 3,4-Dichloro-N-((3S,4R)-1-(6-(1-hydroxycyclopentyl)pyridazin-3-yl)-3-methoxypiperidin-4-yl)-5-methyl-1H-pyrrole-2-carboxamide] | 0.125 (≈ 0.267 µM) | ≤ 0.03 | – | – | – | – | – | – | – | – | 8 (≈ 17.1 µM) | – | – | –
4 | C[C@H]1COc2c(N3CCN(C)CC3)c(F)cc3c(=O)c(C(=O)O)cn1c23 [Levofloxacin, reference compound] | 0.125 (≈ 0.346 µM) | 0.25 (≈ 0.692 µM) | 2 (≈ 5.53 µM) | 8 (≈ 22.1 µM) | 4 (≈ 11.1 µM) | 0.5 (≈ 1.38 µM) | 0.25 (≈ 0.692 µM) | 0.25 (≈ 0.692 µM) | 0.5 (≈ 1.38 µM) | 0.5 (≈ 1.38 µM) | ≤ 0.06 | ≤ 0.06 | 16 (≈ 44.3 µM) | MIC ([7]; 37° C.): 0.25 µg/mL (≈ 0.692 µM)
5 | COC[C@H](C)NC(=O)c1nc(N2CC[C@@H](NC(=O)c3[nH]c(C)c(Cl)c3Cl)[C@@H](OC)C2)sc1C(=O)O [AZD5099] | – | 0.03 (≈ 0.0547 µM) | > 64 | > 64 | – | – | > 64 | – | > 64 | – | 32 (≈ 58.3 µM) | 32 (≈ 58.3 µM) | – | MIC Escherichia coli ATCC25922 (background) [21]: 32 µg/mL (≈ 58.3 µM)
6 | CO[C@H]1CN(c2ccc(C3(O)CCCCC3)nn2)CC[C@H]1NC(=O)c1[nH]c(C)c(Cl)c1Cl [Compound 8, 3,4-Dichloro-N-((3S,4R)-1-(6-(1-hydroxycyclohexyl)pyridazin-3-yl)-3-methoxypiperidin-4-yl)-5-methyl-1H-pyrrole-2-carboxamide] | ≤ 0.03 | ≤ 0.03 | – | – | – | – | – | – | – | – | 16 (≈ 33.2 µM) | – | – | –
7 | CO[C@H]1CN(c2nnc(C(C)(C)O)s2)CC[C@H]1NC(=O)c1[nH]c(C)c(Cl)c1Cl [Compound 2, 3,4-Dichloro-N-((3S,4R)-1-(5-(2-hydroxypropan-2-yl)-1,3,4-thiadiazol-2-yl)-3-methoxypiperidin-4-yl)-5-methyl-1H-pyrrole-2-carboxamide] | ≤ 0.03 | 0.008 (≈ 0.0178 µM) | 8 (≈ 17.8 µM) | 16 (≈ 35.7 µM) | ≤ 0.03 | ≤ 0.03 | 16 (≈ 35.7 µM) | ≤ 0.03 | 16 (≈ 35.7 µM) | ≤ 0.03 | 2 (≈ 4.46 µM) | 1 (≈ 2.23 µM) | ≤ 0.03 | MIC [4]: 0.595 µg/mL (≈ 1.33 µM); MIC ([7]; 37° C.): ≤ 0.03 µg/mL; MIC [11, 22]: 0.25 µg/mL (≈ 0.558 µM); Activity against Clostridium difficile compared with controls ([11]; vs DS2969 and vancomycin): stronger than those of DS2969 and the positive control drug vancomycin
8 | CO[C@H]1CN(c2ncc(C(C)(C)O)s2)CC[C@H]1NC(=O)c1[nH]c(C)c(Cl)c1Cl [Compound 6, 3,4-Dichloro-N-((3S,4R)-1-(5-(2-hydroxypropan-2-yl)thiazol-2-yl)-3-methoxypiperidin-4-yl)-5-methyl-1H-pyrrole-2-carboxamide] | 0.25 (≈ 0.559 µM) | 0.25 (≈ 0.559 µM) | – | – | – | – | – | – | – | – | – | – | – | –
9 | CN[C@H](CC(C)C)C(=O)N[C@H]1C(=O)N[C@@H](CC(N)=O)C(=O)N[C@H]2C(=O)N[C@H]3C(=O)N[C@H](C(=O)N[C@H](C(=O)O)c4cc(O)cc(O)c4-c4cc3ccc4O)[C@H](O)c3ccc(c(Cl)c3)Oc3cc2cc(c3O[C@@H]2O[C@H](CO)[C@@H](O)[C@H](O)[C@H]2O[C@H]2C[C@](C)(N)[C@H](O)[C@H](C)O2)Oc2ccc(cc2Cl)[C@H]1O [Vancomycin] | – | – | – | – | – | – | – | – | – | – | – | – | – | MIC ([5]; ATCC27853, 18 h): > 64 µg/mL; MIC [6]: > 64 µg/mL; MIC ([10]; ATCC19606, 18 h): > 64 µg/mL; MIC ([11]; Clostridioides difficile, ATCC9689, read-out: MIC Clostridium difficile ATCC 9689): 2 µg/mL (≈ 1.38 µM); MIC ([14]; KPN151, 18 h): > 64 µg/mL; MIC ([17]; ATCC25922, 18 h): > 64 µg/mL; MIC ([18]; ATCC35218, 18 h): > 64 µg/mL
